In the assay the target is human recombinant H-PGDS (Homo sapiens, UniProt O60760). Description: Fluorescence intensity h-PGDS TBA enzyme assay. It counts as biochemical. The settings on record: Examples up to 622 (and 3a, 3b).
Chain of human recombinant H-PGDS (O60760 whole entry): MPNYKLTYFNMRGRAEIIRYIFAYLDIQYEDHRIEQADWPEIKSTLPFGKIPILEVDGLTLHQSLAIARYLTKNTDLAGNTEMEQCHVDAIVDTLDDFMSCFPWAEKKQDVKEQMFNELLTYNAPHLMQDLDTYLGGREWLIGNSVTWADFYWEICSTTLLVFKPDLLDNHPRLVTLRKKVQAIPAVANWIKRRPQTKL

As to `COc1cccc(-c2c(CN3CCC(NC(=O)c4ccc(-c5cccc(F)c5)nc4)CC3)cnn2C)c1` [Example 506, 6-(3-Fluorophenyl)-N-(1-{[5-(3-methoxyphenyl)-1-methyl-1H-pyrazol-4-yl]methyl}piperidin-4-yl)nicotinamide], the IC50 (commonly the point on the concentration scale where inhibition reaches its midpoint) stood at 1.25 nM. In the case of `Cn1ncc(CN2CCC(NC(=O)c3ccc(-c4cccc(F)c4)nc3)CC2)c1-c1cccc(F)c1` [Example 507, 6-(3-Fluorophenyl)-N-(1-{[5-(3-fluorophenyl)-1-methyl-1H-pyrazol-4-yl]methyl}piperidin-4-yl)nicotinamide], the half-inhibitory concentration (IC50) is 0.551 nM.

For `COc1ccccc1-c1c(CN2CCC(NC(=O)c3ccc(-c4cccc(F)c4)nc3)CC2)cnn1C` [Example 508, 6-(3-Fluorophenyl)-N-(1-{[5-(2-methoxyphenyl)-1-methyl-1H-pyrazol-4-yl]methyl}piperidin-4-yl)nicotinamide], the half-maximal inhibitory concentration (IC50) was found to be 0.551 nM. With `Cc1ccccc1-c1c(CN2CCC(NC(=O)c3ccc(-c4cccc(F)c4)nc3)CC2)cnn1C` [Example 509, 6-(3-Fluorophenyl)-N-(1-{[1-methyl-5-(2-methylphenyl)-1H-pyrazol-4-yl]methyl}piperidin-4-yl)nicotinamide], the 50% inhibitory concentration (IC50) came to 0.665 nM. The value for `Cc1ccc(-c2c(CN3CCC(NC(=O)c4ccc(-c5cccc(F)c5)nc4)CC3)cnn2C)cc1` [Example 510, 6-(3-Fluorophenyl)-N-(1-{[1-methyl-5-(4-methylphenyl)-1H-pyrazol-4-yl]methyl}piperidin-4-yl)nicotinamide] was 2.74 nM; that for `CC1(CN2CCC(NC(=O)c3ccc(-c4cccc(F)c4)nc3)CC2)CCC1` [Example 511, 6-(3-Fluorophenyl)-N-{1-[(1-methylcyclobutyl)methyl]piperidin-4-yl}nicotinamide] was 1.09 nM.

Turning to `O=C(NC1CCN(Cc2n[nH]c3ccc(Cl)cc23)CC1)c1ccc(-c2cccc(F)c2)nc1` [Example 512, N-{1-[(5-Chloro-1H-indazol-3-yl)methyl]piperidin-4-yl}-6-(3-fluorophenyl)nicotinamide], the half-inhibitory concentration (IC50) came to 0.391 nM. With `O=C(NC1CCN(Cc2n[nH]c3ccccc23)CC1)c1ccc(-c2cccc(F)c2)nc1` [Example 513, 6-(3-Fluorophenyl)-N-[1-(1H-indazol-3-ylmethyl)piperidin-4-yl]nicotinamide], the IC50 was found to be 0.363 nM. The same measure for `O=C1COc2ncc(CN3CCC(NC(=O)c4ccc(-c5cccc(F)c5)nc4)CC3)cc2N1` [Example 514, 6-(3-Fluorophenyl)-N-{1-[(2-oxo-2,3-dihydro-1H-pyrido[2,3-b][1,4]oxazin-7-yl)methyl]piperidin-4-yl}nicotinamide]: 0.348 nM. The value for `COc1ccc(C)cc1CN1CCC(NC(=O)c2ccc(-c3cccc(F)c3)nc2)CC1` [Example 515, 6-(3-Fluorophenyl)-N-[1-(2-methoxy-5-methylbenzyl)piperidin-4-yl]nicotinamide] was 1.1 nM; that for `CCCn1cc(CN2CCC(NC(=O)c3ccc(-c4cccc(F)c4)nc3)CC2)cn1` [Example 516, 6-(3-Fluorophenyl)-N-{1-[(1-propyl-1H-pyrazol-4-yl)methyl]piperidin-4-yl}nicotinamide] was 2.2 nM; that for `CCCn1nccc1CN1CCC(NC(=O)c2ccc(-c3cccc(F)c3)nc2)CC1` [Example 517, 6-(3-Fluorophenyl)-N-{1-[(1-propyl-1H-pyrazol-5-yl)methyl]piperidin-4-yl}nicotinamide] was 0.41 nM.

Turning to `O=C(NC1CCN(Cc2coc3ccccc23)CC1)c1ccc(-c2cccc(F)c2)nc1` [Example 518, N-[1-(1-Benzofuran-3-ylmethyl)piperidin-4-yl]-6-(3-fluorophenyl)nicotinamide], the IC50 is 0.96 nM. As for `Cn1ncc(Cl)c1CN1CCC(NC(=O)c2ccc(-c3cccc(F)c3)nc2)CC1` [Example 519, N-{1-[(4-Chloro-1-methyl-1H-pyrazol-5-yl)methyl]piperidin-4-yl}-6-(3-fluorophenyl)nicotinamide], the concentration for half-maximal inhibition (IC50) amounted to 0.445 nM. `O=C(NC1CCN(Cc2ccc3occc3c2)CC1)c1ccc(-c2cccc(F)c2)nc1` [Example 520, N-[1-(1-Benzofuran-5-ylmethyl)piperidin-4-yl]-6-(3-fluorophenyl)nicotinamide]: the IC50 turned out to be 1.93 nM. On to `O=C(NC1CCN(C(=O)OCc2ccccc2)CC1)c1ccc(-c2cccc(F)c2)nc1` [Example 521, Benzyl 4-({[6-(3-fluorophenyl)pyridin-3-yl]carbonyl}amino)piperidine-1-carboxylate], for which the concentration for half-maximal inhibition (IC50) was determined as 556 nM.

Turning to `CC(C)(C)OC(=O)N1[C@@H]2CC[C@H]1CC(NC(=O)c1ccc(-c3cccc(F)c3)nc1)C2` (stereo partly drawn) [Example 522, tert-Butyl (1R,5S)-3-({[6-(3-fluorophenyl)pyridin-3-yl]carbonyl}amino)-8-azabicyclo[3.2.1]octane-8-carboxylate], the half-inhibitory concentration (IC50) was 6.54 nM. As to `CC(C)(C)OC(=O)N1CCC(NC(=O)c2ccc(-c3cccc(F)c3)nc2)C(c2ccc(F)cc2)C1` (stereo not shown) [Example 523, tert-Butyl 3-(4-fluorophenyl)-4-({[6-(3-fluorophenyl)pyridin-3-yl]carbonyl}amino)piperidine-1-carboxylate], the IC50 stood at 217 nM. In the case of `O=CN1CCC(NC(=O)c2ccc(-c3cccc(F)c3)nc2)CC1` [Example 524, 6-(3-Fluorophenyl)-N-(1-formylpiperidin-4-yl)nicotinamide], the IC50 stood at 1.76 nM. Regarding `O=C(NC1CCNCC1c1ccc(F)cc1)c1ccc(-c2cccc(F)c2)nc1` (stereo not shown) [Example 525, 6-(3-Fluorophenyl)-N-[3-(4-fluorophenyl)piperidin-4-yl]nicotinamide], the IC50 is 14.8 nM. On to `CC(=O)N1CCC(NC(=O)c2ccc(-c3cccc(F)c3)nc2)C(c2ccc(F)cc2)C1` (stereo not shown) [Example 526], for which the half-maximal inhibitory concentration (IC50) was 76.3 nM. For the compound `CC(CC1CC1)N1CCC(NC(=O)c2ccc(-c3cccc(F)c3)nc2)CC1` (stereo not shown) [Example 527, N-[1-(2-Cyclopropyl-1-methylethyl)piperidin-4-yl]-6-(3-fluorophenyl)nicotinamide], the IC50 amounted to 2.84 nM. The value for `COc1ccc2c(c1)CCC2N1CCC(NC(=O)c2ccc(-c3cccc(F)c3)nc2)CC1` (stereo not shown) [Example 528, 6-(3-Fluorophenyl)-N-[1-(5-methoxy-2,3-dihydro-1H-inden-1-yl)piperidin-4-yl]nicotinamide] was 2.49 nM. As to `CC(CC1(C)CC1)N1CCC(NC(=O)c2ccc(-c3cccc(F)c3)nc2)CC1` (stereo not shown) [Example 529, 6-(3-Fluorophenyl)-N-{1-[1-methyl-2-(1-methylcyclopropyl)ethyl]piperidin-4-yl}nicotinamide], the 50% inhibitory concentration (IC50) was 2.5 nM.

Take `COc1ccccc1C(C)N1CCC(NC(=O)c2ccc(-c3cccc(F)c3)nc2)CC1` (stereo not shown) [Example 530, 6-(3-Fluorophenyl)-N-{1-[1-(2-methoxyphenyl)ethyl]piperidin-4-yl}nicotinamide]: the IC50 turned out to be 2.71 nM.

With `CC(c1ccccc1)N1CCC(NC(=O)c2ccc(-c3cccc(F)c3)nc2)CC1` (stereo not shown) [Example 531, 6-(3-Fluorophenyl)-N-[1-(1-phenylethyl)piperidin-4-yl]nicotinamide], the 50% inhibitory concentration (IC50) is 1.15 nM. In the case of `COc1cccc(C(C)N2CCC(NC(=O)c3ccc(-c4cccc(F)c4)nc3)CC2)c1` (stereo not shown) [Example 532, 6-(3-Fluorophenyl)-N-{1-[1-(3-methoxyphenyl)ethyl]piperidin-4-yl}nicotinamide], the IC50 came out at 1.3 nM. On to `COc1cccc(OC)c1C(C)N1CCC(NC(=O)c2ccc(-c3cccc(F)c3)nc2)CC1` (stereo not shown) [Example 533, N-{1-[1-(2,6-Dimethoxyphenyl)ethyl]piperidin-4-yl}-6-(3-fluorophenyl)nicotinamide], for which the IC50 was 2.42 nM. As to `COc1ccc(CC(C)N2CCC(NC(=O)c3ccc(-c4cccc(F)c4)nc3)CC2)cc1` (stereo not shown) [Example 534, 6-(3-Fluorophenyl)-N-{1-[2-(4-methoxyphenyl)-1-methylethyl]piperidin-4-yl}nicotinamide], the IC50 came to 0.234 nM.

Turning to `COc1ccc(C(C)N2CCC(NC(=O)c3ccc(-c4cccc(F)c4)nc3)CC2)cc1` (stereo not shown) [Example 535, 6-(3-Fluorophenyl)-N-{1-[1-(4-methoxyphenyl)ethyl]piperidin-4-yl}nicotinamide], the half-maximal inhibitory concentration (IC50) was found to be 2.11 nM. With `COc1ccc(C(C)N2CCC(NC(=O)c3ccc(-c4cccc(F)c4)nc3)CC2)cc1OC` (stereo not shown) [Example 536, N-{1-[1-(3,4-Dimethoxyphenyl)ethyl]piperidin-4-yl}-6-(3-fluorophenyl)nicotinamide], the IC50 turned out to be 1.75 nM.

As to `O=C(NC1CCN(C2CCC(=O)N(CC3CC3)CC2)CC1)c1ccc(-c2cccc(F)c2)nc1` (stereo not shown) [Example 537, N-{1-[1-(Cyclopropylmethyl)-7-oxoazepan-4-yl]piperidin-4-yl}-6-(3-fluorophenyl)nicotinamide], the concentration for half-maximal inhibition (IC50) was found to be 2.68 nM.

Regarding `CC(C)CN1CCC(N2CCC(NC(=O)c3ccc(-c4cccc(F)c4)nc3)CC2)CCC1=O` (stereo not shown) [Example 538, 6-(3-Fluorophenyl)-N-[1-(1-isobutyl-7-oxoazepan-4-yl)piperidin-4-yl]nicotinamide], the IC50 was determined as 1.94 nM.

Take `COCCN1CCC(N2CCC(NC(=O)c3ccc(-c4cccc(F)c4)nc3)CC2)CCC1=O` (stereo not shown) [Example 539, 6-(3-Fluorophenyl)-N-{1-[1-(2-methoxyethyl)-7-oxoazepan-4-yl]piperidin-4-yl}nicotinamide]: the IC50 was found to be 2.71 nM. Take `CC(c1cnn(-c2ccccc2)c1)N1CCC(NC(=O)c2ccc(-c3cccc(F)c3)nc2)CC1` (stereo not shown) [Example 540, 6-(3-Fluorophenyl)-N-{1-[1-(1-phenyl-1H-pyrazol-4-yl)ethyl]piperidin-4-yl}nicotinamide]: the IC50 was found to be 1.99 nM. For the compound `CCC(c1ccc(OC)c(OC)c1)N1CCC(NC(=O)c2ccc(-c3cccc(F)c3)nc2)CC1` (stereo not shown) [Example 541, N-{1-[1-(3,4-Dimethoxyphenyl)propyl]piperidin-4-yl}-6-(3-fluorophenyl)nicotinamide], the half-maximal inhibitory concentration (IC50) stood at 0.951 nM. With `O=C(NC1CCN(C2CCC(=O)N(CC3CCC3)CC2)CC1)c1ccc(-c2cccc(F)c2)nc1` (stereo not shown) [Example 542, N-{1-[1-(Cyclobutylmethyl)-7-oxoazepan-4-yl]piperidin-4-yl}-6-(3-fluorophenyl)nicotinamide], the half-inhibitory concentration (IC50) worked out at 1.68 nM.
